# From ChEMBL document CHEMBL1125655 (J Med Chem, 1991)
# Test: pKa value of the compound
# Type: physicochemical
compound,measurement,value
CN1CC[C@]23c4c5ccc(O)c4O[C@H]2[C@@H](O[C@@H]2O[C@H](C(=O)O)[C@@H](O)[C@H](O)[C@H]2O)C=C[C@H]3[C@H]1C5 (stereo in doubt; form 1) [MORPHINE GLUCURONIDE],pKa,3.23
